Data as given in patent US9730940B2, “Purine inhibitors of human phosphatidylinositol 3-kinase delta” (priority 2012, dated 2017).

molecular target: PI3K-alpha (Homo sapiens (Human), UniProt P42336); test: HTRF PI3K biochemical assay, alpha isoform; settings: ratio PI3K-alpha IC50 value/PI3K-delta IC50 value
Sequence (P42336 whole entry, looked up, canonical isoform): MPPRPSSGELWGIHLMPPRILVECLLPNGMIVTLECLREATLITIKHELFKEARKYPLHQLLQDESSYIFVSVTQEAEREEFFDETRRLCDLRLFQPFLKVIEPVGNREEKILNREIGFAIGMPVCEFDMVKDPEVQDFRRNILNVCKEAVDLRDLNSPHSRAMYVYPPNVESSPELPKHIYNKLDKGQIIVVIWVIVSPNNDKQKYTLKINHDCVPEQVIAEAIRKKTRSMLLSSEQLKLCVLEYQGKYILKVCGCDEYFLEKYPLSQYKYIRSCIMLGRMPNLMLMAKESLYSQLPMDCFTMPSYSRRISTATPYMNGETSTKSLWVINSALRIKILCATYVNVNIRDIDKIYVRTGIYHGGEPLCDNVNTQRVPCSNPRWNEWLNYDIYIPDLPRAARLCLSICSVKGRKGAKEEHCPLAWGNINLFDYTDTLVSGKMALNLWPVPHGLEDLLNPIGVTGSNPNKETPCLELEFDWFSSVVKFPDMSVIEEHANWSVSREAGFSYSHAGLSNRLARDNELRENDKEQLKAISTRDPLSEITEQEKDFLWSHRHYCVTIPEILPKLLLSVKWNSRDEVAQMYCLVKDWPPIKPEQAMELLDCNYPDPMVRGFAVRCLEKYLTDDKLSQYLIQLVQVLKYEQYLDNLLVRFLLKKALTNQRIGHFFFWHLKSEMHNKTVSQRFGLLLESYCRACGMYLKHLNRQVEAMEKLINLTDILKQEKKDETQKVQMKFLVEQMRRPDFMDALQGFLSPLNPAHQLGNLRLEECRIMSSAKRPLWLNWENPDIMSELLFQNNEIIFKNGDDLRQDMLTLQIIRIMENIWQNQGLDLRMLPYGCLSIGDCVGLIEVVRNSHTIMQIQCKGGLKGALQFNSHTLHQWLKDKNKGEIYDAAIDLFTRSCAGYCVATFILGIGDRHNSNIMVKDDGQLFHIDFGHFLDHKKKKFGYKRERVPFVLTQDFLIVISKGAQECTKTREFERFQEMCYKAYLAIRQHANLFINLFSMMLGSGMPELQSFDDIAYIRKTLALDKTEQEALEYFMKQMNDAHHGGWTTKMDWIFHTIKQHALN
Sequence (P27986 whole entry partner, looked up, canonical isoform): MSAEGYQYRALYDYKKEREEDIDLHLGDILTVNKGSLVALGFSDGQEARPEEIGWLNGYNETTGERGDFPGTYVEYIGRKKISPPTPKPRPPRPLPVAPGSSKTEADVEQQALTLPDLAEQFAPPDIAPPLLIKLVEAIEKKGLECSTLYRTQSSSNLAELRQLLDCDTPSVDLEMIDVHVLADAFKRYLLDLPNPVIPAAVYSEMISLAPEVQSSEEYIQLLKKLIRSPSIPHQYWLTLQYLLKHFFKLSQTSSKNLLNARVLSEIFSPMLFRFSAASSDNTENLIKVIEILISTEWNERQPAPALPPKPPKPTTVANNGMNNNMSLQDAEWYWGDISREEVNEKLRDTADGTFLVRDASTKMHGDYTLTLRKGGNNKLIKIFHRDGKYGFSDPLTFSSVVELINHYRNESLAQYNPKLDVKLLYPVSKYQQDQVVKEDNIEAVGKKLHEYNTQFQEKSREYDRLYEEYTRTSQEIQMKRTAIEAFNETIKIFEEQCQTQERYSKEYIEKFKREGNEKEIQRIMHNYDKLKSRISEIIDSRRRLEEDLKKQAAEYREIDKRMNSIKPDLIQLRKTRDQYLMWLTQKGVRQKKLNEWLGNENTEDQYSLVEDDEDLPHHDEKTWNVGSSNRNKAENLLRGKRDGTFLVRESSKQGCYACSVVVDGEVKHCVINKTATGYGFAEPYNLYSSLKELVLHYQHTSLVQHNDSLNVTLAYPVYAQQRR

| SMILES | Relative Selectivity versus PI3Kalpha |
| --- | --- |
| CCn1ncc(-c2nc3c(O[C@H]4CCN(C(=O)OC)C4)ncnc3n2C)c1C [Compound 1-36, methyl (3S)-3-{[8-(1-ethyl-5-methyl-1H-pyrazol-4-yl)-9-methyl-9H-purin-6-yl]oxy}pyrrolidine-1-carboxylate] | >10 |
| CCOC(=O)N1CC[C@H](Oc2ncnc3c2nc(-c2cnn(CC)c2C)n3C)C1 [Compound 1-37, ethyl (3S)-3-{[8-(1-ethyl-5-methyl-1H-pyrazol-4-yl)-9-methyl-9H-purin-6-yl]oxy}pyrrolidine-1-carboxylate] | >10 |
| CCn1ncc(-c2nc3c(O[C@H]4CCN(C(=O)OC(C)C)C4)ncnc3n2C)c1C [Compound 1-38, 1-methylethyl (3S)-3-{[8-(1-ethyl-5-methyl-1H-pyrazol-4-yl)-9-methyl-9H-purin-6-yl]oxy}pyrrolidine-1-carboxylate] | >10 |
| Cn1c(-c2cnc(C(C)(C)C)s2)nc2c(O[C@H]3CCN(C(=O)OC(C)(C)C)C3)ncnc21 [Compound 1-39, tert-butyl (3S)-3-{[8-(2-tert-butyl-1,3-thiazol-5-yl)-9-methyl-9H-purin-6-yl]oxy}pyrrolidine-1-carboxylate] | >10 |
| CCn1ncc(-c2nc3c(OC4CN(C(=O)OC(C)(C)C)C4)ncnc3n2C)c1C [Compound 1-40, tert-butyl 3-((8-(1-ethyl-5-methyl-1H-pyrazol-4-yl)-9-methyl-9H-purin-6-yl)oxy)azetidine-1-carboxylate] | >10 |
| CCn1ncc(-c2nc3c(O[C@H]4CCCN(C(=O)OC(C)(C)C)C4)ncnc3n2C)c1C [Compound 1-41, (S)-tert-butyl 3-((8-(1-ethyl-5-methyl-1H-pyrazol-4-yl)-9-methyl-9H-purin-6-yl)oxy)piperidine-1-carboxylate] | >10 |
| CCn1ncc(-c2nc3c(O[C@@H]4CCCN(C(=O)OC(C)(C)C)C4)ncnc3n2C)c1C [Compound 1-42, (R)-tert-butyl 3-((8-(1-ethyl-5-methyl-1H-pyrazol-4-yl)-9-methyl-9H-purin-6-yl)oxy)piperidine-1-carboxylate] | >2 |
| CCOC(=O)N1CC[C@H](Oc2ncnc3c2nc(-c2cnc(C)nc2)n3CC)C1 [Compound 1-43, (S)-ethyl 3-{[9-ethyl-8-(2-methylpyrimidin-5-yl)-9H-purin-6-yl]oxy}pyrrolidine-1-carboxylate] | >10 |
| CCn1c(-c2cnc(C)nc2)nc2c(OC3CN(C(=O)OC(C)(C)C)CC3F)ncnc21 [Compound 1-44, [(3S,4S) and (3R,4R)]-tert-butyl 3-{[9-ethyl-8-(2-methylpyrimidin-5-yl)-9H-purin-6-yl]oxy}-4-fluoropyrrolidine-1-carboxylate] | >10 |
| CCC1CN(C(=O)OCc2ccccc2)CC1Oc1ncnc2c1nc(-c1cnc(C)nc1)n2CC [Compound 1-45, [(3S,4R) and (3R,4S)]-benzyl 3-ethyl-4-{[9-ethyl-8-(2-methylpyrimidin-5-yl)-9H-purin-6-yl]oxy}pyrrolidine-1-carboxylate] | >10 |
| CCn1c(-c2cnc(C)nc2)nc2c(OC3CN(C(=O)OC(C)(C)C)CC3O)ncnc21 [Compound 1-46, [(3S,4S) and (3R,4R)]-tert-butyl 3-{[9-ethyl-8-(2-methylpyrimidin-5-yl)-9H-purin-6-yl]oxy}-4-hydroxypyrrolidine-1-carboxylate] | >10 |
| CCn1c(-c2cnc(C)nc2)nc2c(OC3CN(C(=O)OC(C)(C)C)CC3(F)F)ncnc21 (stereo not shown) [Compound 1-47, (4S and 4R)-tert-butyl 4-{[9-ethyl-8-(2-methylpyrimidin-5-yl)-9H-purin-6-yl]oxy}-3,3-difluoropyrrolidine-1-carboxylate] | >10 |
| CCn1c(-c2cnc(C)nc2)nc2c(O[C@H]3CCN(C(=O)OC(C)(C)C)[C@@H]3C)ncnc21 [Compound 1-48, tert-butyl (2R,3S)-3-{[9-ethyl-8-(2-methylpyrimidin-5-yl)-9H-purin-6-yl]oxy}-2-methylpyrrolidine-1-carboxylate] | >10 |
| CCn1c(-c2cnc(C)nc2)nc2c(O[C@H]3CCN(C(=O)OCCN(C)C)C3)ncnc21 [Compound 1-49, 2-(dimethylamino)ethyl (3S)-3-{[9-ethyl-8-(2-methylpyrimidin-5-yl)-9H-purin-6-yl]oxy}pyrrolidine-1-carboxylate] | >10 |
| CCn1c(-c2ccc(OC(F)F)nc2)nc2c(O[C@H]3CCN(C(=O)OC(C)(C)C)C3)ncnc21 [Compound 1-51, tert-butyl (3S)-3-({8-[6-(difluoromethoxy)pyridin-3-yl]-9-ethyl-9H-purin-6-yl}oxy)pyrrolidine-1-carboxylate] | >10 |
| CCn1ncc(-c2nc3c(OC4CCN(C(=O)c5ccccc5)C4)ncnc3n2C)c1C (stereo not shown) [Compound 2-1, 8-(1-ethyl-5-methyl-1H-pyrazol-4-yl)-9-methyl-6-{[1-(phenylcarbonyl)pyrrolidin-3-yl]oxy}-9H-purine] | >10 |

| SMILES | Relative Selectivity versus PI3Kalpha |
| --- | --- |
| CCn1ncc(-c2nc3c(OC4CCN(C(=O)C5CCCC5)C4)ncnc3n2C)c1C (stereo not shown) [Compound 2-2, 6-{[1-(cyclopentylcarbonyl)pyrrolidin-3-yl]oxy}-8-(1-ethyl-5-methyl-1H-pyrazol-4-yl)-9-methyl-9H-purine] | >10 |
| CCn1ncc(-c2nc3c(OC4CCN(C(=O)c5ccc6ccccc6c5)C4)ncnc3n2C)c1C (stereo not shown) [Compound 2-3, 8-(1-ethyl-5-methyl-1H-pyrazol-4-yl)-9-methyl-6-{[1-(naphthalen-2-ylcarbonyl)pyrrolidin-3-yl]oxy}-9H-purine] | >10 |
| CCn1ncc(-c2nc3c(OC4CCN(C(=O)C5CCCCC5)C4)ncnc3n2C)c1C (stereo not shown) [Compound 2-4, 6-{[1-(cyclohexylcarbonyl)pyrrolidin-3-yl]oxy}-8-(1-ethyl-5-methyl-1H-pyrazol-4-yl)-9-methyl-9H-purine] | >10 |
| CCn1ncc(-c2nc3c(OC4CCN(C(=O)COC)C4)ncnc3n2C)c1C (stereo not shown) [Compound 2-5, 8-(1-ethyl-5-methyl-1H-pyrazol-4-yl)-6-{[1-(methoxyacetyl)pyrrolidin-3-yl]oxy}-9-methyl-9H-purine] | >10 |
| CCn1ncc(-c2nc3c(OC4CCN(C(=O)CC5CCOCC5)C4)ncnc3n2C)c1C (stereo not shown) [Compound 2-6, 8-(1-ethyl-5-methyl-1H-pyrazol-4-yl)-9-methyl-6-{[1-(tetrahydro-2H-pyran-4-ylacetyl)pyrrolidin-3-yl]oxy}-9H-purine] | >10 |
| CCn1ncc(-c2nc3c(OC4CCN(C(=O)c5cnco5)C4)ncnc3n2C)c1C (stereo not shown) [Compound 2-7, 8-(1-ethyl-5-methyl-1H-pyrazol-4-yl)-9-methyl-6-{[1-(1,3-oxazol-5-ylcarbonyl)pyrrolidin-3-yl]oxy}-9H-purine] | >10 |
| CCn1ncc(-c2nc3c(O[C@H]4CCN(C(=O)C5CCOCC5)C4)ncnc3n2C)c1C [Compound 2-8, (S)-(3-((8-(1-ethyl-5-methyl-1H-pyrazol-4-yl)-9-methyl-9H-purin-6-yl)oxy)pyrrolidin-1-yl)(tetrahydro-2H-pyran-4-yl)methanone] | >10 |
| CCn1ncc(-c2nc3c(O[C@@H]4CCN(C(=O)C5CCOCC5)C4)ncnc3n2C)c1C [Compound 2-9, (R)-(3-((8-(1-ethyl-5-methyl-1H-pyrazol-4-yl)-9-methyl-9H-purin-6-yl)oxy)pyrrolidin-1-yl)(tetrahydro-2H-pyran-4-yl)methanone] | 3 |
| CCn1ncc(-c2nc3c(O[C@H]4CCN(C(=O)C5(C)CCOCC5)C4)ncnc3n2C)c1C [Compound 2-10, 8-(1-ethyl-5-methyl-1H-pyrazol-4-yl)-9-methyl-6-({(3S)-1-[(4-methyltetrahydro-2H-pyran-4-yl)carbonyl]pyrrolidin-3-yl}oxy)-9H-purine] | >10 |
| CCn1ncc(-c2nc3c(OC4CCN(C(=O)C5CCOCC5)CC4)ncnc3n2C)c1C [Compound 2-11, (4-((8-(1-ethyl-5-methyl-1H-pyrazol-4-yl)-9-methyl-9H-purin-6-yl)oxy)piperidin-1-yl)(tetrahydro-2H-pyran-4-yl)methanone] | 2 |
| CCC(=O)N1CCC(Oc2ncnc3c2nc(-c2cnn(CC)c2C)n3C)CC1 [Compound 2-14, 1-(4-((8-(1-ethyl-5-methyl-1H-pyrazol-4-yl)-9-methyl-9H-purin-6-yl)oxy)piperidin-1-yl)propan-1-one] | 1 |
| CCn1ncc(-c2nc3c(O[C@H]4CCN(C(=O)CC#N)C4)ncnc3n2C)c1C [Compound 2-15, 3-[(3S)-3-{[8-(1-ethyl-5-methyl-1H-pyrazol-4-yl)-9-methyl-9H-purin-6-yl]oxy}pyrrolidin-1-yl]-3-oxopropanenitrile] | >10 |
| CCn1ncc(-c2nc3c(O[C@H]4CCN(C(=O)C5CC5)C4)ncnc3n2C)c1C [Compound 2-16, 6-{[(3S)-1-(cyclopropylcarbonyl)pyrrolidin-3-yl]oxy}-8-(1-ethyl-5-methyl-1H-pyrazol-4-yl)-9-methyl-9H-purine] | >10 |
| CCn1ncc(-c2nc3c(O[C@H]4CCN(C(=O)C5CCCO5)C4)ncnc3n2C)c1C (stereo partly drawn) [Compound 2-17, 8-(1-ethyl-5-methyl-1H-pyrazol-4-yl)-9-methyl-6-{[(3S)-1-(tetrahydrofuran-2-ylcarbonyl)pyrrolidin-3-yl]oxy}-9H-purine] | >10 |
| CCn1ncc(-c2nc3c(O[C@H]4CCN(C(=O)c5ccc(N6CCN(C)CC6)cc5)C4)ncnc3n2C)c1C [Compound 2-21, 8-(1-ethyl-5-methyl-1H-pyrazol-4-yl)-9-methyl-6-{[(3S)-1-{[4-(4-methylpiperazin-1-yl)phenyl]carbonyl}pyrrolidin-3-yl]oxy}-9H-purine] | 1 |
